Experimental data: US10968462B2, “Plants having increased tolerance to herbicides” (BASF AGRO B.V., priority 2013, dated 2021)
Substitutions are numbered along the chain they refer to. Read-outs that look alike come from different tables or passages of the source.

Key:
Format in all cases: biochemical, Amaranthus tuberculatum
[1] = target: T1, wild type and amino acid substituted PPO enzyme (PPO2) of SEQ ID NO: 2 (AMARE) (Amaranthus tuberculatus, UniProt Q0NZW9, L397E/F420M, form not given)
T1 sequence (Q0NZW9 1-534 L397E/F420M): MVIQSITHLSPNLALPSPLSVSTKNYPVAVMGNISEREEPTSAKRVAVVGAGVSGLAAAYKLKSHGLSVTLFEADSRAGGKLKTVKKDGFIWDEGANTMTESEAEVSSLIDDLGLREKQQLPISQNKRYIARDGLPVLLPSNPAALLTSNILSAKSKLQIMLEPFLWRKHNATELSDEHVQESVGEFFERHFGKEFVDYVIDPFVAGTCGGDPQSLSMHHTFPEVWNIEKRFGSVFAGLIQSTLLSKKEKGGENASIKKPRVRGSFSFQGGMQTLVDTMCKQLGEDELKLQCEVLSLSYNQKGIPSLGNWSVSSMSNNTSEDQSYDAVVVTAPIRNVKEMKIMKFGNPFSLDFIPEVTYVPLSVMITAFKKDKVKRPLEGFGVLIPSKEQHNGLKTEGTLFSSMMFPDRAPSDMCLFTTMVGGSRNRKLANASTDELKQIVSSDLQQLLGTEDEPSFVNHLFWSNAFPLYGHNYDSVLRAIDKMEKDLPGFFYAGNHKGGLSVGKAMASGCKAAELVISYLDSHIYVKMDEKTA

[2] = target: T2, wild type and amino acid substituted PPO enzyme (PPO2) of SEQ ID NO: 2 (AMARE) (Amaranthus tuberculatus, UniProt Q0NZW9, L397Q/F420M, form not given)
T2 sequence (Q0NZW9 1-534 L397Q/F420M): T1 sequence (Q0NZW9 1-534 L397E/F420M) with E397Q

[3] = target: T3, wild type and amino acid substituted PPO enzyme (PPO2) of SEQ ID NO: 2 (AMARE) (Amaranthus tuberculatus, UniProt Q0NZW9, R128I/F420M, form not given)
T3 sequence (Q0NZW9 1-534 R128I/F420M): T1 sequence (Q0NZW9 1-534 L397E/F420M) with R128I, E397L

[4] = target: T4, wild type and amino acid substituted PPO enzyme (PPO2) of SEQ ID NO: 2 (AMARE) (Amaranthus tuberculatus, UniProt Q0NZW9, R128Y/F420M, form not given)
T4 sequence (Q0NZW9 1-534 R128Y/F420M): T1 sequence (Q0NZW9 1-534 L397E/F420M) with R128Y, E397L

Row | Molecule | IC50 [1] | IC50 [2] | IC50 [3] | IC50 [4] | also measured
1 | CCOCCOC(=O)C(OC)Oc1ccccc1Oc1cc(-n2c(=O)cc(C(F)(F)F)n(C)c2=O)c(F)cc1Cl (stereo not drawn) | 4430 nM | 933 nM | 13.9 nM |  | 
2 | COC(Oc1ccccc1Oc1cc(-n2c(=O)cc(C(F)(F)F)n(C)c2=O)c(F)cc1Cl)C(=O)OCC(F)F (stereo not drawn) | 875 nM | 319 nM | 46.1 nM |  | 
3 | COC(Oc1ccccc1Oc1cc(-n2c(=O)cc(C(F)(F)F)n(C)c2=O)c(F)cc1Cl)C(=O)OCc1ccncc1 (stereo not drawn) | 6380 nM | 945 nM | 15.6 nM |  | 
4 | COC(Oc1ccccc1Oc1cc(-n2c(=O)cc(C(F)(F)F)n(C)c2=O)c(F)cc1Cl)C(=O)OCC1(C)CC1 (stereo not drawn) | 1870 nM | 456 nM | 13.7 nM |  | 
5 | COC(Oc1ccccc1Oc1cc(-n2c(=O)cc(C(F)(F)F)n(C)c2=O)c(F)cc1Cl)C(=O)OC1CCCCC1 (stereo not drawn) | 8560 nM | 642 nM | 10.6 nM |  | 
6 | COC(=O)C(OC)Oc1ccccc1Oc1cc(-n2c(=O)cc(C(F)(F)F)n(C)c2=O)c(F)cc1Cl (stereo not drawn) | 959 nM | 359 nM | 11.5 nM |  | 
7 | CCOC(=O)COc1ncccc1Oc1cc(-n2c(=O)cc(C(F)(F)F)n(C)c2=O)c(F)cc1Cl [A.13, ethyl [3-[2-chloro-4-fluoro-5-(1-methyl-6-trifluoromethyl-2,4-dioxo-1,2,3,4-tetrahydropyrimidin-3-yl)phenoxy]-2-pyridyloxy]acetate, reference compound] |  |  |  | 89.2 nM | 
8 | O=C(O)c1cc(Oc2ccc(C(F)(F)F)cc2Cl)ccc1[N+](=O)[O-] [ACIFLUORFEN] |  |  |  | ≥ 10000 nM | 
9 | C=CCOC(=O)C(C)(C)OC(=O)c1cc(-n2c(=O)cc(C(F)(F)F)n(C)c2=O)ccc1Cl [BUTAFENACIL] |  |  |  | 50.4 nM | 
10 | CCOC(=O)C(Cl)Cc1cc(-n2nc(C)n(C(F)F)c2=O)c(F)cc1Cl (stereo not drawn) [CARFENTRAZONE-ETHYL] |  |  |  | 85.2 nM | 
11 | CCOC(=O)/C(Cl)=C/c1cc(N2C(=O)C3=C(CCCC3)C2=O)ccc1Cl [CINIDON-ETHYL] |  |  |  |  | IC50 ([4]; read-out: IC50): 10800 nM
12 | C#CCN1C(=O)COc2cc(F)c(N3C(=O)C4=C(CCCC4)C3=O)cc21 [FLUMIOXAZIN] |  |  |  | ≥ 10000 nM | inhibition (%) at 1 × 10−5M [4]: −2%
13 | CS(=O)(=O)NC(=O)c1cc(Oc2ccc(C(F)(F)F)cc2Cl)ccc1[N+](=O)[O-] [FOMESAFEN] |  |  |  | ≥ 10000 nM | inhibition (%) at 1 × 10−5M [4]: 28%
14 | CCOC(=O)C(C)OC(=O)c1cc(Oc2ccc(C(F)(F)F)cc2Cl)ccc1[N+](=O)[O-] (stereo not drawn) [LACTOFEN] |  |  |  | 143 nM | 
15 | CCOc1cc(Oc2ccc(C(F)(F)F)cc2Cl)ccc1[N+](=O)[O-] [OXIFLUORFEN] |  |  |  | 1130 nM | 
16 | OXADIARGYL |  |  |  |  | IC50 ([4]; read-out: IC50): 36 nM
